Patent publication US20260083751A1, “ALLOSTERIC MODULATORS OF ANDROGEN RECEPTOR COACTIVATOR RECRUITMENT FOR CRPC THERAPY” (University of Pittsburgh – Of the Commonwealth System of …, priority 2022, published 2026)

Assays:
[1] = test system: AR-V7 directed transcriptional activation in PC3-AR-V7-EGFP cells; experiment: AR-V7 driven PSA6.1-Luc and UBE2C-Luc reporter assays, results stated jointly; format: cell-based; details: both reporters; read-out: IC50s, both PSA6-6.1-Luc and UBE2C-Luc reporters in PC3-AR-V7-EGFP cells (potency range in words)
Experimental: PSA6.1 Promoter Driven Luciferase Reporter Assay in PC3-AR-V7-GFP Cells: PC3-AR-V7-GFP cells were bulk transfected with a mixture of FuGENE® HD transfection agent and the PSA-6.1-Luc reporter plasmid (20 ng/well) combined at a 3:1 (μL:μg) ratio in Opti-MEM™ medium (Gibco, Gaithersburg, MD) that had been incubated for 25 min at RT before being added to PC3-AR-V7-GFP cells that were suspended in RPMI 1640 (Gibco) media containing 1% L-glutamine (Invitrogen), and 10% fetal bovine serum (Gemini Bio-products). Bulk transfected PC3-AR-V7-GFP cells were seeded into white opaque 384-well assay plates (Greiner Bio-one, #781080) at 3,000 cells per well in a volume of 40 μL and incubated at 5% CO2, 37° C., and 95% humidity for 24 h. After 24 h, 5 μL of compounds were transferred to assay wells and the plates were returned to the incubator for an additional 24 h before 25 μL of BrightGlo® luciferase reagent (Promega) was added to the wells and the RLU's were captured on a SpectraMax® M5e plate reader (Molecular Devices LLC) as described previously (Fancher et al., Assay Drug Dev Technol. 2019, 17:364-386).
UBE2C Promoter Driven Luciferase Reporter Assay in PC3-AR-V7-GFP Cells: The pGL4.28-UBE2C 20bpX3 luciferase reporter plasmid (Xu et al., Cancer Res 2015, 75:3663-71) was provided by Dr. Yan Dong from Tulane University. […]

AR-LBD and SRC1 = target: T1, AR-LBD and SRC1 (Homo sapiens, UniProt P10275); experiment: AR-SRC1 mammalian 2-hybrid assay; format: cell-based; details: HEK 293 cells; read-out: Inhibition DHT-induced AR-SRC1 mammalian 2 hybrid assay IC50
T1 construct: AR-LBD amino acids 658-919 expressed as a fusion protein with Gal4-DBD; expressed in transfected cells; host or cells: HEK 293, transient co-transfection
T1 sequence (P10275 658-919): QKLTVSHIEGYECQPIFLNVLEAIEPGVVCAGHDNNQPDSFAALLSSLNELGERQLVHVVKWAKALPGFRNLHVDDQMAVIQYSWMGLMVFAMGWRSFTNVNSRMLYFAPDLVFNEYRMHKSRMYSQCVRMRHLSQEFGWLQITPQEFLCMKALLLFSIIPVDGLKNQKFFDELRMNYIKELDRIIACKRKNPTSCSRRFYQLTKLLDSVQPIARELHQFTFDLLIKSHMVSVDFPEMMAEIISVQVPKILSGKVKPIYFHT
Source text: TIF2 and SRC1 Mammalian 2-Hybrid Assays: The 5×GAL4-TATA-luciferase reporter plasmid was a gift from Dr. Richard Maurer from the Oregon Health and Science University (Gonzalez et al., Cell 1989, 59:675-80), and constructs pGAL4-hAR-658-919 (AR-LBD amino acids 658-919 expressed as a fusion protein with Gal4-DBD) (Askew et al., J Biol Chem 2007, 282:25801-16), pVP16-SRC1 (full-length SRC1 expressed as a fusion with VP16 activation domain) (He et al., J Biol Chem 1999, 274:37219-25) and pVP16-Empty vectors were kindly provided to us by Dr. Elizabeth Wilson, from UNC Chapel Hill. pVP16-TIF2 was generated as described previously (Fancher et al., Assay Drug Dev Technol. 2019, 17:364-386). HEK 293 cells were transiently co-transfected with 5 ng of pGal4-AR-LBD, 10 ng of either pVP16-TIF2 or pVP16-SRC1, and 20 ng of the 5×Gal4-TATA-Luc reporter as described previously (Ibid.). HEK 293 cells were bulk co-transfected with the three plasmids that had been individually incubated with FuGENE® 6 transfection agent (Fugent LLC, Middleton, WI) at a 3:1 ratio for 25 min at room temperature (RT) in serum free media (SFM) and then combined with HEK 293 cells that were suspended in DMEM (Cellgro10013CV) with 2 mM L-glutamine (Invitrogen) that was supplemented with 10% fetal bovine serum, and 5,000 cells in a volume of 40 μL were seeded into the wells of white opaque 384-well assay plates (Greiner Bio-one, #781080) and cultured overnight at 37° C., 5% CO2, and 95% humidity. […] 25 μL of BrightGlo® reagent (Promega, Madison, WI) was added to the plate and the relative luminescence units (RLUs) were captured on a SpectraMax® M5e microtiter plate reader (Molecular Devices, LLC, San Jose, CA).

Row | SMILES | IC50 [1] | IC50 (AR-LBD and SRC1)
1 | Cc1ccccc1-c1cc(O)c2c(c1)CN(c1nc(C(N)=O)cs1)CCO2 [Compound S1-1] | 10000 to 100000 nM | 380 nM
2 | Cc1nc(N)cc(N2CCOc3c(O)cc(-c4ccccc4C)cc3C2)n1 [Compound S1-2] | 10000 to 100000 nM | 
3 | Cc1nsc(NC(=O)N2CCC(Sc3ccccc3C)CC2)n1 [Compound S2-6] |  | 290 nM
4 | Cc1c(-c2ccccc2F)[nH]c2ccc(CNC(=O)CCc3cn[nH]c3)cc12 [Compound S3-11] |  | 600 nM
